Assay results as given in article PMC7156458, “Synthetic biology based construction of biological activity-related library of fungal decalin-containing diterpenoid pyrones” (Nature Communications, 2020).

Molecular target: Aβ42 (Homo sapiens, UniProt P05067)
Assay: Th-T (thioflavin-T) assay of Aβ42 aggregation
Type: biochemical
Conditions: for Th-T assay plate reading, mean of three wells (Supplementary Fig. 47): source data, Ab alone and No Ab as controls

Chain of Aβ42 (P05067 672-713): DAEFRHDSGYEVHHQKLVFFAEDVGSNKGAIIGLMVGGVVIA

C=C1CC[C@H]2[C@]3(C)C[C@@H](C=C(C)C)O[C@H]3CC[C@]2(C)[C@@H]1Cc1c(O)c(C)c(C)oc1=O [Compound 5, subglutinol A]
Th-T fluorescence, mean of three wells (Aβ42 aggregation time course, reading M117): 2.674
Th-T fluorescence, mean of three wells (Aβ42 aggregation time course, reading M118): 2.686
Th-T fluorescence, mean of three wells (Aβ42 aggregation time course, reading M119): 2.671
Th-T fluorescence, mean of three wells (Aβ42 aggregation time course, reading M120): 2.6965
Th-T fluorescence, mean of three wells (Aβ42 aggregation time course, reading M121): 2.686
Th-T fluorescence, mean of three wells (Aβ42 aggregation time course, reading M122): 2.656
Th-T fluorescence, mean of three wells (Aβ42 aggregation time course, reading M123): 2.683
Th-T fluorescence, mean of three wells (Aβ42 aggregation time course, reading M124): 2.652
Th-T fluorescence, mean of three wells (Aβ42 aggregation time course, reading M125): 2.669
Th-T fluorescence, mean of three wells (Aβ42 aggregation time course, reading M126): 2.668
Th-T fluorescence, mean of three wells (Aβ42 aggregation time course, reading M127): 2.67
Th-T fluorescence, mean of three wells (Aβ42 aggregation time course, reading M128): 2.643
Th-T fluorescence, mean of three wells (Aβ42 aggregation time course, reading M129): 2.642
Th-T fluorescence, mean of three wells (Aβ42 aggregation time course, reading M130): 2.649
Th-T fluorescence, mean of three wells (Aβ42 aggregation time course, reading M131): 2.67
Th-T fluorescence, mean of three wells (Aβ42 aggregation time course, reading M132): 2.65
Th-T fluorescence, mean of three wells (Aβ42 aggregation time course, reading M133): 2.648
Th-T fluorescence, mean of three wells (Aβ42 aggregation time course, reading M134): 2.64
Th-T fluorescence, mean of three wells (Aβ42 aggregation time course, reading M135): 2.652
Th-T fluorescence, mean of three wells (Aβ42 aggregation time course, reading M136): 2.674
Th-T fluorescence, mean of three wells (Supplementary Fig. 47, reading M137): 2.698
Th-T fluorescence, mean of three wells (Supplementary Fig. 47, reading M138): 2.649
Th-T fluorescence, mean of three wells (Supplementary Fig. 47, reading M139): 2.636
Th-T fluorescence, mean of three wells (Supplementary Fig. 47, reading M140): 2.665
Th-T fluorescence, mean of three wells (Supplementary Fig. 47, reading M141): 2.631
Th-T fluorescence, mean of three wells (Supplementary Fig. 47, reading M142): 2.63
Th-T fluorescence, mean of three wells (Supplementary Fig. 47, reading M143): 2.626
Th-T fluorescence, mean of three wells (Supplementary Fig. 47, reading M144): 2.617
Th-T fluorescence, mean of three wells (Supplementary Fig. 47, reading M145): 2.644
Th-T fluorescence, mean of three wells (Supplementary Fig. 47 source data, measurement M37 of time course): 2.596
Th-T fluorescence, mean of three wells (Supplementary Fig. 47 source data, measurement M38 of time course): 2.604
Th-T fluorescence, mean of three wells (Supplementary Fig. 47 source data, measurement M39 of time course): 2.6132
Th-T fluorescence, mean of three wells (Supplementary Fig. 47 source data, measurement M40 of time course): 2.619
Th-T fluorescence, mean of three wells (Supplementary Fig. 47 source data, measurement M41 of time course): 2.62
Th-T fluorescence, mean of three wells (Supplementary Fig. 47 source data, measurement M42 of time course): 2.62
Th-T fluorescence, mean of three wells (Supplementary Fig. 47 source data, measurement M43 of time course): 2.6737
Th-T fluorescence, mean of three wells (Supplementary Fig. 47 source data, measurement M44 of time course): 2.6589
Th-T fluorescence, mean of three wells (Supplementary Fig. 47 source data, measurement M45 of time course): 2.678
Th-T fluorescence, mean of three wells (Supplementary Fig. 47 source data, measurement M46 of time course): 2.668
Th-T fluorescence, mean of three wells (Supplementary Fig. 47 source data, measurement M47 of time course): 2.664
Th-T fluorescence, mean of three wells (Supplementary Fig. 47 source data, measurement M48 of time course): 2.673
Th-T fluorescence, mean of three wells (Supplementary Fig. 47 source data, measurement M49 of time course): 2.687
Th-T fluorescence, mean of three wells (Supplementary Fig. 47 source data, measurement M50 of time course): 2.7097
Th-T fluorescence, mean of three wells (Supplementary Fig. 47 source data, measurement M51 of time course): 2.667
Th-T fluorescence, mean of three wells (Supplementary Fig. 47 source data, measurement M52 of time course): 2.696
Th-T fluorescence, mean of three wells (Supplementary Fig. 47 source data, measurement M53 of time course): 2.692
Th-T fluorescence, mean of three wells (Supplementary Fig. 47 source data, measurement M54 of time course): 2.717
Th-T fluorescence, mean of three wells (Supplementary Fig. 47 source data, measurement M55 of time course): 2.693
Th-T fluorescence, mean of three wells (Supplementary Fig. 47 source data, measurement M56 of time course): 2.698
Th-T assay plate reading, mean of three wells (Supplementary Fig. 47) (measurement M1): 0.28
Th-T assay plate reading, mean of three wells (Supplementary Fig. 47) (measurement M2): 0.2885
Th-T assay plate reading, mean of three wells (Supplementary Fig. 47) (measurement M3): 0.3145
Th-T assay plate reading, mean of three wells (Supplementary Fig. 47) (measurement M4): 0.3563
Th-T assay plate reading, mean of three wells (Supplementary Fig. 47) (measurement M5): 0.4309
Th-T assay plate reading, mean of three wells (Supplementary Fig. 47) (measurement M6): 0.5173
Th-T assay plate reading, mean of three wells (Supplementary Fig. 47) (measurement M7): 0.5869
Th-T assay plate reading, mean of three wells (Supplementary Fig. 47) (measurement M8): 0.6432
Th-T assay plate reading, mean of three wells (Supplementary Fig. 47) (measurement M9): 0.6839
Th-T assay plate reading, mean of three wells (Supplementary Fig. 47) (measurement M10): 0.7213
Th-T assay plate reading, mean of three wells (Supplementary Fig. 47) (measurement M11): 0.7671
Th-T assay plate reading, mean of three wells (Supplementary Fig. 47) (measurement M12): 0.8255
Th-T assay plate reading, mean of three wells (Supplementary Fig. 47) (measurement M13): 0.9138
Th-T assay plate reading, mean of three wells (Supplementary Fig. 47) (measurement M14): 1.049
Th-T assay plate reading, mean of three wells (Supplementary Fig. 47) (measurement M15): 1.273
Th-T assay plate reading, mean of three wells (Supplementary Fig. 47) (measurement M16): 1.57
Th-T fluorescence, mean of three wells (reading M17, Supplementary Fig. 47 source data): 1.838
Th-T fluorescence, mean of three wells (reading M18, Supplementary Fig. 47 source data): 2.054
Th-T fluorescence, mean of three wells (reading M19, Supplementary Fig. 47 source data): 2.206
Th-T fluorescence, mean of three wells (reading M20, Supplementary Fig. 47 source data): 2.312
Th-T fluorescence, mean of three wells (reading M21, Supplementary Fig. 47 source data): 2.3414
Th-T fluorescence, mean of three wells (reading M22, Supplementary Fig. 47 source data): 2.381
Th-T fluorescence, mean of three wells (reading M23, Supplementary Fig. 47 source data): 2.384
Th-T fluorescence, mean of three wells (reading M24, Supplementary Fig. 47 source data): 2.421
Th-T fluorescence, mean of three wells (reading M25, Supplementary Fig. 47 source data): 2.421
Th-T fluorescence, mean of three wells (reading M26, Supplementary Fig. 47 source data): 2.4278
Th-T fluorescence, mean of three wells (reading M27, Supplementary Fig. 47 source data): 2.452
Th-T fluorescence, mean of three wells (reading M28, Supplementary Fig. 47 source data): 2.461
Th-T fluorescence, mean of three wells (reading M29, Supplementary Fig. 47 source data): 2.478
Th-T fluorescence, mean of three wells (reading M30, Supplementary Fig. 47 source data): 2.514
Th-T fluorescence, mean of three wells (reading M31, Supplementary Fig. 47 source data): 2.5151
Th-T fluorescence, mean of three wells (reading M32, Supplementary Fig. 47 source data): 2.555
Th-T fluorescence, mean of three wells (reading M33, Supplementary Fig. 47 source data): 2.5475
Th-T fluorescence, mean of three wells (reading M34, Supplementary Fig. 47 source data): 2.566
Th-T fluorescence, mean of three wells (reading M35, Supplementary Fig. 47 source data): 2.566
Th-T fluorescence, mean of three wells (reading M36, Supplementary Fig. 47 source data): 2.598
Th-T fluorescence, mean of three wells (time course, reading M57): 2.692
Th-T fluorescence, mean of three wells (time course, reading M58): 2.694
Th-T fluorescence, mean of three wells (time course, reading M59): 2.7314
Th-T fluorescence, mean of three wells (time course, reading M60): 2.723
Th-T fluorescence, mean of three wells (time course, reading M61): 2.703
Th-T fluorescence, mean of three wells (time course, reading M62): 2.708
Th-T fluorescence, mean of three wells (time course, reading M63): 2.7
Th-T fluorescence, mean of three wells (time course, reading M64): 2.715
Th-T fluorescence, mean of three wells (time course, reading M65): 2.696
Th-T fluorescence, mean of three wells (time course, reading M66): 2.7072
Th-T fluorescence, mean of three wells (time course, reading M67): 2.703
Th-T fluorescence, mean of three wells (time-course reading M97, Supplementary Fig. 47 source data): 2.693
Th-T fluorescence, mean of three wells (time-course reading M98, Supplementary Fig. 47 source data): 2.706
Th-T fluorescence, mean of three wells (time-course reading M99, Supplementary Fig. 47 source data): 2.707
Th-T fluorescence, mean of three wells (time-course reading M100, Supplementary Fig. 47 source data): 2.682
Th-T fluorescence, mean of three wells (time-course reading M101, Supplementary Fig. 47 source data): 2.67
Th-T fluorescence, mean of three wells (time-course reading M102, Supplementary Fig. 47 source data): 2.671
Th-T fluorescence, mean of three wells (time-course reading M103, Supplementary Fig. 47 source data): 2.705
Th-T fluorescence, mean of three wells (time-course reading M104, Supplementary Fig. 47 source data): 2.674
Th-T fluorescence, mean of three wells (time-course reading M105, Supplementary Fig. 47 source data): 2.704
Th-T fluorescence, mean of three wells (time-course reading M106, Supplementary Fig. 47 source data): 2.676
Th-T fluorescence, mean of three wells (time-course reading M107, Supplementary Fig. 47 source data): 2.6621
Th-T fluorescence, mean of three wells (time-course reading M108, Supplementary Fig. 47 source data): 2.675
Th-T fluorescence, mean of three wells (time-course reading M109, Supplementary Fig. 47 source data): 2.6837
Th-T fluorescence, mean of three wells (time-course reading M110, Supplementary Fig. 47 source data): 2.682
Th-T fluorescence, mean of three wells (time-course reading M111, Supplementary Fig. 47 source data): 2.679
Th-T fluorescence, mean of three wells (time-course reading M112, Supplementary Fig. 47 source data): 2.691
Th-T fluorescence, mean of three wells (time-course reading M113, Supplementary Fig. 47 source data): 2.675
Th-T fluorescence, mean of three wells (time-course reading M114, Supplementary Fig. 47 source data): 2.674
Th-T fluorescence, mean of three wells (time-course reading M115, Supplementary Fig. 47 source data): 2.688
Th-T fluorescence, mean of three wells (time-course reading M116, Supplementary Fig. 47 source data): 2.67
